IC50 data for 13 compounds are collected here from the Kinase Knowledgebase extract (Sharma et al. 2016).

Some results are limits rather than exact numbers.

The target of the experiment is CDK2 (human) (UniProt P24941). The experiment can be described thus: Enzyme Assay.
Regarding `C1=CCn2ccc3ccc(cc32)-c2ccnc(n2)Nc2cccc(c2)COC1`, the IC50 – broadly, the concentration that inhibits the measured activity by half – is no more than 1 µM.
As for `C1=CCOCc2cc(ccc2OCCN2CCCC2)Nc2nccc(n2)-c2ccc3ccn(c3c2)CC1`, the IC50 is no more than 1 µM.
On to `CCN(CC)CCNCCOc1ccc2cc1COCC=CCn1ccc3ccc(cc31)-c1ccnc(n1)N2`, for which the IC50 is no more than 1 µM.
`C1=CCOCc2cc(ccc2OCCN2CCCC2)Nc2nccc(n2)-c2ccc3c(ccn3CC1)c2` returned a half-maximal inhibitory concentration (IC50) of no more than 1 µM.
`O=C(CCN1CCCCC1)Nc1ccc2cc1OCC=CCn1ccc3ccc(cc31)-c1ccnc(n1)N2` yielded an IC50 of no more than 1 µM.
On to `Cc1cnc2nc1-c1ccc3ccn(c3c1)CC=CCOCc1cc(ccc1OCCN1CCCC1)N2`, for which the IC50 is no more than 1 µM.
On to `CC(=O)NCCNCCOc1ccc2cc1COCC=CCn1ccc3ccc(cc31)-c1ccnc(n1)N2`, for which the IC50 was no more than 1 µM.
In turn, `ClCCOc1ccc2cc1COCC=CCn1ccc3ccc(cc31)-c1ccnc(n1)N2` yielded a 50% inhibitory concentration (IC50) of no more than 1 µM.
Compound `CN1CCN(c2ccc3cc2COCC=CCn2ccc4ccc(cc42)-c2ccnc(n2)N3)CC1` came in with a concentration for half-maximal inhibition (IC50) of no more than 1 µM.
Then `O=C(CCN1CCCCC1)Nc1ccc2cc1OCCC=CCn1ccc3ccc(cc31)-c1ccnc(n1)N2`, with no more than 1 µM.
As for `C1=CCn2ccc3ccc(cc32)-c2ccnc(n2)Nc2ccc(OCCN3CCCC3)c(c2)COC1`, the IC50 was no more than 1 µM.
As for `C1=CCn2ccc3ccc(cc32)-c2ccnc(n2)Nc2cccc(c2)OCC1`, the IC50 was no more than 1 µM.
The compound `CN1CC=CCCn2ccc3ccc(cc32)-c2ccnc(n2)Nc2cccc(c2)C1` gave a half-maximal inhibitory concentration (IC50) of no more than 1 µM.
